Paper PMC7794472, “Direct entry of cell-penetrating peptide can be controlled by maneuvering the membrane curvature” (Scientific Reports, 2021)

How the values were obtained:
[1] = 0 °C (SOPC Tc 6 °C, gel state), CLSM observation; cited from earlier work
[2] = tested on: dermal fibroblasts; settings: cited from earlier work
Text: Hoffmeister Effect of solute[12] is one of the known phenomena to control the hydration level of self-assembled amphiphiles. Chaotropic solutes (water structure breakers) such as sodium thiocyanate (NaSCN) and 1,3-butanediol (1,3-BG) make the membrane curvature positive. On the other hand, kosmotropic solutes (water structure maker ...

[3] = Leakage of internalized FITC-R8 and rhodamine from GUV; settings: EPC GUV, L/P = 1000, 10 min, 37 °C, different osmotic pressures, with or without FITC-R8 in outer medium, fluorescence Ex 555/Em 575 nm, n = 5
Method: GUVs were prepared by the freeze-melting and natural swelling method[23]. Lipids dissolved in chloroform were placed into the vials, and then the solvent was evaporated. After being dried in vacuo for 16 h in the dark, lipid films were hydrated with 0.01 mg/mL of Rho/3 M KCl solution to give 20 mM lipid concentration. […] The suspension was vortexed for 1 min. This step (from freezing to vortexing) was repeated six times. It was transferred to a dialysis membrane (UC-8-32-25; Viskase Co. Ltd., Chicago, USA) and dialyzed against 20% PBS for at least two days at room temperature and, the dialysis solution was daily replaced by a new one. In this study, 20% PBS is defined as ‘isotonic solution’ and PBS solution at concentrations less than 20% as ‘hypotonic solution’ and at higher than 20% as ‘hypertonic solution’.
Penetration assay of CPP into GUV was conducted in the same manner previously reported[23]. […] The ratio of penetrated FITC-R8 and Rho leakage ratio was calculated using the following equations:1 P=A/U×100 2 L=IL-Rho/IL-Rho+INL-Rho×100
In Eq. (1), P is the penetrated ratio of FITC-R8 ratio, A is the amount of penetrated FITC-R8 into GUV calculated using the standard curve, and U is the amount of FITC-R8 used in this experiment. In Eq. (2), L is the leaked Rho ratio, and IL-Rho and INL-Rho are the fluorescence intensities of leaked and non-leaked Rho.

[4] = set-up: method as in doi:10.1246/cl.2012.1078; settings: under the tested conditions, regardless of osmotic pressure change; cited from earlier work

N=C(N)NCCC[C@H](NC(=O)[C@H](CCCNC(=N)N)NC(=O)[C@H](CCCNC(=N)N)NC(=O)[C@H](CCCNC(=N)N)NC(=O)[C@H](CCCNC(=N)N)NC(=O)[C@H](CCCNC(=N)N)NC(=O)[C@H](CCCNC(=N)N)NC(=O)[C@H](CCCNC(=N)N)NC(=O)CCCNC(=S)Nc1ccc2c(c1)C(=O)OC21c2ccc(O)cc2Oc2cc(O)ccc21)C(=O)O [FITC-R8]
cytolysis to SOPC GUV [1]: no cytolysis | cell viability with chaotropic solutes (NaSCN, 1,3-BG) [2]: without interfering with cell viability

CCN(CC)c1ccc2c(-c3ccccc3C(=O)O)c3ccc(=[N+](CC)CC)cc-3oc2c1 [rhodamine, Rhodamine B]
leakage of rhodamine pre-encapsulated in the GUV [3]: very low and consistent

fluorescein isothiocyanate [FITC]
permeation through the membrane into the cytosol [4]: could not permeate through the membrane
